Tested on: 885724-159-R-J1-PDC complex spheroid viability
Assay: Anticancer human tumor 885724-159-R-J1-PDC patient-derived pancreatic adenocarcinoma cell line growth inhibition [POLQ]
Conditions: for IC50: curve of first compound; for viability, T/C: stronger effect = lower value
How it was run: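 Three-cell-type spheroids modelling solid tumor plus stroma served as the readout system; POL inhibitors were tested individually and in combination, concentration ranges set by clinical Cmax where known.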

[1] = second compound 0.0316 µM, first compound 0.0316 µM
[2] = second compound 0.0316 µM, first compound 0.1 µM
[3] = second compound 0.1 µM, first compound 0.0316 µM
[4] = second compound 0.1 µM, first compound 0.1 µM
[5] = second compound 0.316 µM, first compound 0.0316 µM
[6] = second compound 0.316 µM, first compound 0.1 µM
[7] = second compound 1 µM, first compound 0.0316 µM
[8] = second compound 1 µM, first compound 0.1 µM
[9] = second compound 3.16 µM, first compound 0.0316 µM
[10] = second compound 3.16 µM, first compound 0.1 µM
[11] = second compound 10 µM, first compound 0.0316 µM
[12] = second compound 10 µM, first compound 0.1 µM
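Note: spheroids exposed to compounds for 7 days.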

Cn1ncnc1[C@H]1c2n[nH]c(=O)c3cc(F)cc(c23)N[C@@H]1c1ccc(F)cc1 + COC1C(OC(N)=O)C(O)C(Oc2ccc3c(O)c(NC(=O)c4ccc(O)c(CC=C(C)C)c4)c(=O)oc3c2C)OC1(C)C
IC50 (second compound 0.0316 µM): > 0.1 µM | IC50 (second compound 0.1 µM): > 0.1 µM | IC50 (second compound 0.316 µM): > 0.1 µM | IC50 (second compound 1 µM): > 0.1 µM | IC50 (second compound 3.16 µM): > 0.1 µM | IC50 (second compound 10 µM): > 0.1 µM | viability, T/C (second compound 0.0316 µM, first compound 0.000316 µM): 91.2% | viability, T/C (second compound 0.0316 µM, first compound 0.001 µM): 103% | viability, T/C (second compound 0.0316 µM, first compound 0.00316 µM): 92.2% | viability, T/C (second compound 0.0316 µM, first compound 0.01 µM): 94.9% | viability, T/C [1]: 87% | viability, T/C [2]: 72.1% | viability, T/C (second compound 0.1 µM, first compound 0.000316 µM): 101% | viability, T/C (second compound 0.1 µM, first compound 0.001 µM): 95.3% | viability, T/C (second compound 0.1 µM, first compound 0.00316 µM): 94.5% | viability, T/C (second compound 0.1 µM, first compound 0.01 µM): 93.6% | viability, T/C [3]: 89.8% | viability, T/C [4]: 82.8% | viability, T/C (second compound 0.316 µM, first compound 0.000316 µM): 113% | viability, T/C (second compound 0.316 µM, first compound 0.001 µM): 92% | viability, T/C (second compound 0.316 µM, first compound 0.00316 µM): 95.6% | viability, T/C (second compound 0.316 µM, first compound 0.01 µM): 95.4% | viability, T/C [5]: 89.4% | viability, T/C [6]: 78.7% | viability, T/C (second compound 1 µM, first compound 0.000316 µM): 105% | viability, T/C (second compound 1 µM, first compound 0.001 µM): 86.6% | viability, T/C (second compound 1 µM, first compound 0.00316 µM): 95.7% | viability, T/C (second compound 1 µM, first compound 0.01 µM): 85% | viability, T/C [7]: 83.6% | viability, T/C [8]: 77% | viability, T/C (second compound 3.16 µM, first compound 0.000316 µM): 105% | viability, T/C (second compound 3.16 µM, first compound 0.001 µM): 87.5% | viability, T/C (second compound 3.16 µM, first compound 0.00316 µM): 90.2% | viability, T/C (second compound 3.16 µM, first compound 0.01 µM): 98.5% | viability, T/C [9]: 93.7% | viability, T/C [10]: 75.7% | viability, T/C (second compound 10 µM, first compound 0.000316 µM): 95.1% | viability, T/C (second compound 10 µM, first compound 0.001 µM): 97.4% | viability, T/C (second compound 10 µM, first compound 0.00316 µM): 85% | viability, T/C (second compound 10 µM, first compound 0.01 µM): 90.5% | viability, T/C [11]: 88.4% | viability, T/C [12]: 75.3%

O=C(c1cc(Cc2n[nH]c(=O)c3ccccc23)ccc1F)N1CCN(C(=O)C2CC2)CC1 + COC1C(OC(N)=O)C(O)C(Oc2ccc3c(O)c(NC(=O)c4ccc(O)c(CC=C(C)C)c4)c(=O)oc3c2C)OC1(C)C
IC50 (second compound 0.0316 µM): > 10 µM | IC50 (second compound 0.1 µM): > 10 µM | IC50 (second compound 0.316 µM): > 10 µM | IC50 (second compound 1 µM): > 10 µM | IC50 (second compound 3.16 µM): > 10 µM | IC50 (second compound 10 µM): > 10 µM | viability, T/C [1]: 101% | viability, T/C [2]: 93.9% | viability, T/C (second compound 0.0316 µM, first compound 0.316 µM): 91.4% | viability, T/C (second compound 0.0316 µM, first compound 1 µM): 88.3% | viability, T/C (second compound 0.0316 µM, first compound 3.16 µM): 90.8% | viability, T/C (second compound 0.0316 µM, first compound 10 µM): 78.9% | viability, T/C [3]: 97.4% | viability, T/C [4]: 85.9% | viability, T/C (second compound 0.1 µM, first compound 0.316 µM): 86% | viability, T/C (second compound 0.1 µM, first compound 1 µM): 88% | viability, T/C (second compound 0.1 µM, first compound 3.16 µM): 86.3% | viability, T/C (second compound 0.1 µM, first compound 10 µM): 83.9% | viability, T/C [5]: 94.8% | viability, T/C [6]: 91.4% | viability, T/C (second compound 0.316 µM, first compound 0.316 µM): 90.3% | viability, T/C (second compound 0.316 µM, first compound 1 µM): 89.2% | viability, T/C (second compound 0.316 µM, first compound 3.16 µM): 85.5% | viability, T/C (second compound 0.316 µM, first compound 10 µM): 75.7% | viability, T/C [7]: 85.8% | viability, T/C [8]: 89.6% | viability, T/C (second compound 1 µM, first compound 0.316 µM): 89.5% | viability, T/C (second compound 1 µM, first compound 1 µM): 95.8% | viability, T/C (second compound 1 µM, first compound 3.16 µM): 85.4% | viability, T/C (second compound 1 µM, first compound 10 µM): 79.9% | viability, T/C [9]: 96.4% | viability, T/C [10]: 85.7% | viability, T/C (second compound 3.16 µM, first compound 0.316 µM): 104% | viability, T/C (second compound 3.16 µM, first compound 1 µM): 85.5% | viability, T/C (second compound 3.16 µM, first compound 3.16 µM): 92.8% | viability, T/C (second compound 3.16 µM, first compound 10 µM): 79.7% | viability, T/C [11]: 96.3% | viability, T/C [12]: 83% | viability, T/C (second compound 10 µM, first compound 0.316 µM): 92.4% | viability, T/C (second compound 10 µM, first compound 1 µM): 85.1% | viability, T/C (second compound 10 µM, first compound 3.16 µM): 91.1% | viability, T/C (second compound 10 µM, first compound 10 µM): 69.9%
